Assay results reported in patent US12209096B2, “Compounds and compositions for inducing chondrogenesis” (NOVARTIS AG, priority 2017, dated 2025).
Where two headings read alike, the source gives them in different places.

Legend:
[1] = system: NHACs; assay: calcium flux assay; assay type: cell-based, human; conditions: for Emax: read-out: (A) % Efficacy
In short: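 Normal human articular chondrocytes plated at 2000 cells/well and loaded 24 h later with Calcium 5 dye in HBSS/HEPES with 5 mM probenecid for 1 h at room temperature. Test compound added at indicated dose; fluorescence (ex 470–495/em 515–575 nm) recorded on FLIPR before and after addition.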

[2] = system: C3H10T1/2 cell line; assay: alkaline phosphatase assay in C3H10T1/2; assay type: cell-based; conditions: Mus musculus, C3H 10T1/2, 144 h, alkaline phosphatase assay in C3H10T1/2, 6 days; for Emax: read-out: (D) % Efficacy; for IC50: read-out: (D) IC50
Method: To initiate differentiation in C3H10T1/2, Clone 8 (ATCC cat #CCL-226), 4,000 cells were plated/well in 384 Perkin Elmer CellCarrier Ultra plate in DMEM/High glucose (HyClone cat #SH30022.01) containing 10% FBS and 1× Antibiotic/Antimycotic (HyClone cat #SV30079.01). After 24 hours the test compound was then added to each well at the indicated dose. The cultures were grown at 37° C. for 6 days.
To detect the presence of hypertrophic cells, C3H10T1/2 were fixed with 4% paraformaldehyde and Hoeschst dye for 20 minutes, rinsed in PBS, then stained with Fast Blue RR Salt with Naphthol AS-MX Phosphate Alkaline Solution.
The ALP staining was imaged by fluoresecent microscopy, using the 561 wavelength, and/or quantified by high content imagining with the ImageXpress Micro Confocal (Molecular Devices, Sunnyvale, CA). Data analyses were performed with the customized multiwavelength cell-scoring application looking at the number of ALP positive cells per well.

Compound | EC50 ([1]; Homo sapiens) | Emax ([1]; Homo sapiens) | Emax [2] | IC50 [2] | (A) % Efficacy [1] | EC50 [1]
O=C(Nc1cnc(Cl)c(Cl)c1)[C@H]1[C@H](c2ccnc(F)c2)[C@@H]2O[C@H]1C[C@H]2O (single isomer, unassigned) [Example 90b] | > 50 µM | 44% | 45% | > 20 µM |  | 
COc1cc([C@H]2[C@H]3O[C@H](C[C@@H]3O)[C@@H]2C(=O)Nc2ccc(Cl)c(Cl)c2)ccn1 (single isomer, unassigned) [Example 139a] | 25 µM | 275% | 54% | 1.8 µM |  | 
O=C(Nc1ccc(Cl)c(Cl)c1)[C@@H]1[C@@H](c2ccnc(C(F)(F)F)c2)[C@H]2O[C@@H]1C[C@@H]2O (single isomer, unassigned) [Example 145a] |  |  | 100% | 1.2 µM |  | 
O=C(Nc1ccc(Cl)c(Cl)c1)[C@H]1[C@H](c2ccnc(C(F)(F)F)c2)[C@@H]2O[C@H]1C[C@H]2O (single isomer, unassigned) [Example 145b] |  |  | 83% | 11 µM |  | 
Cc1ccc([C@@H]2[C@@H](C(=O)Nc3ccc(Cl)c(Cl)c3)[C@@H]3O[C@H]2C[C@H]3F)cn1 [Example 116, (1S,2R,3S,4S,6R)—N-(3,4-dichlorophenyl)-6-fluoro-3-(6-methylpyridin-3-yl)-7-oxabicyclo[2.2.1]heptane-2-carboxamide] | 23 µM | 58% |  |  |  | 
O=C(Nc1ccc(Cl)c(Cl)c1)[C@H]1[C@@H]2O[C@@H]([C@H]3C[C@H]32)[C@@H]1c1cncnc1 (single isomer, unassigned) [Example 126a] | 5.4 µM | 233% |  |  |  | 
Cc1cc([C@H]2[C@H]3O[C@H](C[C@@H]3O)[C@H]2C(=O)Nc2cnc(Cl)c(Cl)c2)ccn1 [Example 6, (1R,2S,3S,4R,5S)-N-(5,-6-dichloropyridin-3-yl)-5-hydroxy-3-(2-methylpyridin-4-yl)-7-oxabicyclo[2.2.1]heptane-2-carboxamide] |  |  |  |  | 17% | > 50 µM
Cc1cc([C@H]2[C@H]3O[C@H](C[C@H]3F)[C@@H]2C(=O)Nc2cccc(OC(F)(F)F)c2)ccn1 [Example 99, (1R,2R,3S,4R,5R)-5-fluoro-3-(2-methylpyridin-4-yl)-N-(3-(trifluoromethoxy)phenyl)-7-oxabicyclo[2.2.1]heptane-2-carboxamide] | 18 µM | 383% |  |  |  | 
O=C(Nc1cccc(C(F)(F)F)c1)[C@H]1[C@@H]2O[C@@H]([C@@H](O)[C@H]2O)[C@@H]1c1ccncc1 [Example 159, (1S,2R,3S,4R,5S,6R)-5,6-dihydroxy-3-(pyridin-4-yl)-N-(3-(trifluoromethyl)phenyl)-7-oxabicyclo[2.2.1]heptane-2-carboxamide] | > 50 µM | 11% |  |  |  | 
O=C(Nc1ccc(Cl)c(Cl)c1)[C@@H]1[C@H]2O[C@H]([C@@H]3C[C@@H]32)[C@H]1c1ccnc(F)c1F (single isomer, unassigned) [Example 122b] | 17 µM | 217% |  |  |  | 
Cc1cc([C@@H]2[C@@H]3O[C@@H](C[C@H]3O)[C@@H]2C(=O)Nc2ccc(Cl)c(Cl)c2)ccn1 (single isomer, unassigned) [Example 53b] | > 50 µM | 119% |  |  |  | 
Cc1ccc([C@H]2[C@H]3O[C@H](C[C@H]3F)[C@H]2C(=O)Nc2ccc(Cl)c(Cl)c2)cn1 [Example 64, (1R,2S,3S,4R,5R)—N-(3,4-dichlorophenyl)-5-fluoro-3-(6-methylpyridin-3-yl)-7-oxabicyclo[2.2.1]heptane-2-carboxamide] | 21 µM | 253% |  |  |  | 
CO[C@H]1C[C@H]2O[C@@H]1[C@H](c1ccnc(C)c1)[C@H]2C(=O)Nc1ccc(Cl)c(Cl)c1 [Example 155, (1R,2R,3S,4R,5S)—N-(3,4-dichlorophenyl)-5-methoxy-3-(2-methylpyridin-4-yl)-7-oxabicyclo[2.2.1]heptane-2-carboxamide] | 26 µM | 262% |  |  |  | 
O=C(Nc1ccc(Cl)c(Cl)c1)[C@H]1[C@@H](c2ccncc2)[C@H]2O[C@@H]1C[C@@H]2O (racemic) [Example 47, rac-(1R,2S,3S,4R,5S)—N-(3,4-dichlorophenyl)-5-hydroxy-3-(pyridin-4-yl)-7-oxabicyclo[2.2.1]heptane-2-carboxamide] | 7.8 µM | 38% |  |  |  | 
Cc1cc([C@H]2[C@H]3O[C@H](C[C@@H]3F)[C@H]2C(=O)Nc2cnc(Cl)c(Cl)c2)ccn1 [Example 18, (1R,2S,3S,4R,5S)-N-(5,6-dichloropyridin-3-yl)-5-fluoro-3-(2-methylpyridin-4-yl)-7-oxabicyclo[2.2.1]heptane-2-carboxamide] | > 50 µM | 0% |  |  |  | 
CN(C)[C@@H]1C[C@H]2O[C@@H]1[C@H](c1ccnc(F)c1)[C@H]2C(=O)Nc1cnc(Cl)c(Cl)c1 [Example 175, (1R,2R,3S,4R,5R)—N-(5,6-dichloropyridin-3-yl)-5-(dimethylamino)-3-(2-fluoropyridin-4-yl)-7-oxabicyclo[2.2.1]heptane-2-carboxamide] | 29 µM | 186% |  |  |  | 
(1S,2S,4R,5R,6S,7S)-N-(3,4-dichlorophenyl)-7-(2-methylpyridin-4-yl)-8-oxatricyclo[3.2.1.0^2,4]octane-6-carboxamide [Example 23] |  |  |  |  | 54% | > 50 µM
Cc1cc([C@H]2[C@H]3O[C@H](C[C@H]3F)[C@@H]2C(=O)Nc2ccn(C)n2)ccn1 [Example 101, (1R,2R,3S,4R,5R)-5-fluoro-N-(1-methyl-1H-pyrazol-3-yl)-3-(2-methylpyridin-4-yl)-7-oxabicyclo[2.2.1]heptane-2-carboxamide] | 29 µM | 62% |  |  |  | 
Cc1cc([C@H]2[C@H]3O[C@H](C[C@@H]3O)[C@@H]2C(=O)Nc2ccc(Cl)c(Cl)c2)ccn1 (racemic) [Example 77, rac-(1R,2R,3S,4R,5S)—N-(3,4-dichlorophenyl)-5-hydroxy-3-(2-methylpyridin-4-yl)-7-oxabicyclo[2.2.1]heptane-2-carboxamide] | 26 µM | 49% |  |  |  | 
Nc1ncc([C@H]2[C@H]3O[C@H](C[C@@H]3O)[C@H]2C(=O)Nc2ccc(Cl)c(Cl)c2)cn1 [Example 60, (1R,2S,3S,4R,5S)-3-(2-aminopyrimidin-5-yl)-N-(3,4-dichlorophenyl)-5-hydroxy-7-oxabicyclo[2.2.1]heptane-2-carboxamide] | > 50 µM | 2% |  |  |  | 
O=C(Nc1ccc(Cl)c(Cl)c1)[C@@H]1[C@@H](c2ccnc(F)c2)[C@H]2O[C@@H]1C[C@H]2NCCO [Example 173, (1R,2R,3S,4R,5R)—N-(3,4-dichlorophenyl)-3-(2-fluoropyridin-4-yl)-5-((2-hydroxyethyl)amino)-7-oxabicyclo[2.2.1]heptane-2-carboxamide] | 27 µM | 54% |  |  |  | 
COc1ccc(NC(=O)[C@@H]2[C@@H]3O[C@@H]([C@H]4C[C@H]43)[C@@H]2c2ccnc(F)c2F)cn1 [Example 34, (1S,2S,4R,5R,6S,7S)-7-(2,3-difluoropyridin-4-yl)-N-(6-methoxypyridin-3-yl)-8-oxatricyclo[3.2.1.0^2,4]octane-6-carboxamide] | > 50 µM | 3% |  |  |  | 
O=C(Nc1ccc(Cl)c(Cl)c1)[C@@H]1[C@@H](c2ccncc2)[C@H]2O[C@@H]1C[C@@H]2O [Example 150, (1R,2R,3S,4R,5S)—N-(3,4-dichlorophenyl)-5-hydroxy-3-(pyridin-4-yl)-7-oxabicyclo[2.2.1]heptane-2-carboxamide] | > 50 µM | 5% |  |  |  | 
COc1ccc(NC(=O)[C@@H]2[C@@H]3O[C@@H]([C@H]4C[C@H]43)[C@@H]2c2ccc(C)nc2)cn1 (racemic) [Example 2, rac-(1S,2S,4R,5R,6S,7S)—N-(6-methoxypyridin-3-yl)-7-(6-methylpyridin-3-yl)-8-oxatricyclo[3.2.1.0^2,4]octane-6-carboxamide] | 0.3 µM | 45% |  |  |  | 
Cc1cc([C@H]2[C@@H]3C[C@@H](O)C(O3)[C@H]2C(=O)Nc2cccc(C(F)(F)F)c2)ccn1 (stereo in doubt) [Example 9, (1R,2S,3S,4S,6R)-6-hydroxy-3-(2-methylpyridin-4-yl)-N-[3-(trifluoromethyl)phenyl]-7-oxabicyclo[2.2.1]heptane-2-carboxamide] | > 50 µM | 0% |  |  |  | 
Cc1cc([C@H]2[C@H]3O[C@H](C[C@@H]3O)[C@H]2C(=O)Nc2cc(Cl)c(Cl)cn2)ccn1 [Example 4, (1R,2S,3S,4R,5S)-N-(4,5-dichloropyridin-2-yl)-5-hydroxy-3-(2-methylpyridin-4-yl)-7-oxabicyclo[2.2.1]heptane-2-carboxamide] | > 50 µM | 28% |  |  |  | 
O=C(Nc1ccc(Cl)c(Cl)c1)[C@@H]1[C@@H]2O[C@@H]([C@H]3C[C@H]32)[C@@H]1c1cnc(N2CCOCC2)nc1 [Example 40, (1S,2S,4R,5R,6S,7S)—N-(3,4-dichlorophenyl)-7-(2-morpholinopyrimidin-5-yl)-8-oxatricyclo[3.2.1.0^2,4]octane-6-carboxamide] | > 50 µM | 37% |  |  |  | 
Nc1ncc([C@H]2[C@H]3O[C@H](C[C@@H]3O)[C@@H]2C(=O)Nc2ccc(Cl)c(Cl)c2)cn1 [Example 143, (1R,2R,3S,4R,5S)-3-(2-aminopyrimidin-5-yl)-N-(3,4-dichlorophenyl)-5-hydroxy-7-oxabicyclo[2.2.1]heptane-2-carboxamide] | > 50 µM | 0% |  |  |  | 
